Data: ChEMBL document CHEMBL3351341, “Discovery of a potent and selective EGFR inhibitor (AZD9291) of both sensitizing and T790M resistance mutations that spares the wild type form of the receptor” (J Med Chem, 2014)
In brackets after ≈: the same amount, converted by molar mass. Each block holds one compound with its values, some of them ahead of it.

Assays:
[1] = target: Epidermal growth factor receptor (Homo sapiens, UniProt P00533, L858R/T790M); assay: Inhibition of EGFR L858R/T790M double mutant phosphorylation in human NCI-H1975 cells after 2 hrs by fluorescence assay; type: cell-based
[2] = target: Epidermal growth factor receptor (Homo sapiens, UniProt P00533, EX19DEL); assay: Inhibition of EGFR exon 19 deletion activating mutant phosphorylation in human PC9 cells after 2 hrs by fluorescence assay; type: cell-based, PC-9
[3] = target: Epidermal growth factor receptor (Homo sapiens, UniProt P00533); assay: Inhibition of wild type EGFR phosphorylation in human LoVo cells after 2 hrs by fluorescence assay; type: cell-based
[4] = Intrinsic clearance in mouse hepatocytes measured per 10^6 cells; type: ADME, cell-based, Hepatocyte; conditions: read-out: CLH
[5] = Thermodynamic solubility of the compound at pH 7.4; type: physicochemical; conditions: buffer, read-out: Therm_solubility
[6] = target: T1, Insulin-like growth factor 1 receptor (Homo sapiens, UniProt P08069); assay: Inhibition of IGF1R (unknown origin)
T1 sequence (P08069 31-736 limits assumed): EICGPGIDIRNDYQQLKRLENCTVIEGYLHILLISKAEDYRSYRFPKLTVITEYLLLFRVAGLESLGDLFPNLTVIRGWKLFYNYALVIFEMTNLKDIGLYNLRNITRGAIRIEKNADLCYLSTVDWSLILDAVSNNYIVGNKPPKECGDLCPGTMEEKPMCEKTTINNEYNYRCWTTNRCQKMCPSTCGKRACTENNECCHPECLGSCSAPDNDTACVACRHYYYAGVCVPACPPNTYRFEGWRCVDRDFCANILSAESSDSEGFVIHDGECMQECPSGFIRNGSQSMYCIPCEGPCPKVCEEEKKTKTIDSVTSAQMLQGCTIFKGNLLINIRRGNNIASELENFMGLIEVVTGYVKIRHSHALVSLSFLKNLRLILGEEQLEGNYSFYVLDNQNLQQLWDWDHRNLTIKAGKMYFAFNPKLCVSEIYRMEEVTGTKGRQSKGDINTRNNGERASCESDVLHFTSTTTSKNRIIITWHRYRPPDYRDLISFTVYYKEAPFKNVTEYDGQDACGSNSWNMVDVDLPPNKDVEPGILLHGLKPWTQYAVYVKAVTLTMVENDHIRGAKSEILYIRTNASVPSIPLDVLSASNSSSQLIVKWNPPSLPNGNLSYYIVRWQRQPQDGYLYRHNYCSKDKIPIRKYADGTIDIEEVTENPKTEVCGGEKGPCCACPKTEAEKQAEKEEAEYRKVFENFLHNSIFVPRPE
T1 sequence (P08069 741-1367 limits assumed): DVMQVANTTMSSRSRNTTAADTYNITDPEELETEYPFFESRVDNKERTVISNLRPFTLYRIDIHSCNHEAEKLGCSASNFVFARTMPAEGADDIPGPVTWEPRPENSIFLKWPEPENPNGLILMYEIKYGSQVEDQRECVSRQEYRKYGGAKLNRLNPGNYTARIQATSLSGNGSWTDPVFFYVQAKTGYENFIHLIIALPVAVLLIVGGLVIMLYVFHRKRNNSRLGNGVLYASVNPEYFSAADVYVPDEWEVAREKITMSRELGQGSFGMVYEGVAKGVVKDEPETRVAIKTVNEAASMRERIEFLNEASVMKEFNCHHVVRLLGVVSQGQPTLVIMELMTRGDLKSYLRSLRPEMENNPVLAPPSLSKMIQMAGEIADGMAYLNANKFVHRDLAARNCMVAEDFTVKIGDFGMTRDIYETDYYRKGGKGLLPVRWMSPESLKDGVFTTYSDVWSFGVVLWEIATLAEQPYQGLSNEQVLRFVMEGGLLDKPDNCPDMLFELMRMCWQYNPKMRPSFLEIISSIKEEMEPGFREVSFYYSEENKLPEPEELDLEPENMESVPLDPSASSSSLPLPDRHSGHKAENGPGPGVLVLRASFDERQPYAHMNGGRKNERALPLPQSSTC

[7] = Lipophilicity, log D of the compound at pH 7.4; type: physicochemical; conditions: buffer
NCI-H1975 [8] = assay: Cytotoxicity against human NCI-H1975 cells harboring EGFR L858R/[…] double mutant assessed as growth inhibition after 72 hrs by SYTOX green nucleic acid staining-based fluorescence assay; type: functional; conditions: Homo sapiens, NCI-H1975, 72 h
[9] = Cytotoxicity against human PC9 cells harboring EGFR exon 19 deletion activating mutant assessed as growth inhibition after 72 hrs by SYTOX green nucleic acid staining-based fluorescence assay; type: functional, PC-9; conditions: Homo sapiens, PC-9, 72 h
[10] = Cytotoxicity against human Calu3 cells assessed as growth inhibition after 72 hrs by SYTOX green nucleic acid staining-based fluorescence assay; type: functional, Calu-3; conditions: Homo sapiens, Calu-3, 72 h
[11] = Unbound fraction in human plasma; type: ADME, cell-free
[12] = Fraction unbound in Han Wistar rat plasma; type: ADME, cell-free
NCI-H1975 [13] = assay: Antitumor activity against human NCI-H1975 cells harboring EGFR L858R/[…] double mutant xenografted in SCID mouse assessed as tumor growth inhibition at […], po qd for 7 days relative to control; type: functional; conditions: Mus musculus, NCI-H1975, 168 h, read-out: TGI
A-431 [14] = assay: Antitumor activity against human A431 cells xenografted in SCID mouse assessed as tumor growth inhibition at […], po qd for 7 days relative to control; type: functional; conditions: Mus musculus, A-431, 168 h, read-out: TGI
[15] = Unbound fraction in nude mouse plasma; type: ADME, cell-free
NCI-H1975 [16] = assay: Antitumor activity against human NCI-H1975 cells harboring EGFR L858R/[…] double mutant xenografted in SCID mouse assessed as tumor growth inhibition at 10 mg/kg/day, po qd for 7 days relative to control; type: functional; conditions: Mus musculus, NCI-H1975, 168 h, read-out: TGI
A-431 [17] = assay: Antitumor activity against human A431 cells xenografted in SCID mouse assessed as tumor growth inhibition at 10 mg/kg/day, po qd for 7 days relative to control; type: functional; conditions: Mus musculus, A-431, 168 h, read-out: TGI
NCI-H1975 [18] = assay: Antitumor activity against human NCI-H1975 cells harboring EGFR L858R/[…] double mutant xenografted in SCID mouse assessed as tumor growth inhibition at 5 mg/kg/day, po qd for 7 days relative to control; type: functional; conditions: Mus musculus, NCI-H1975, 168 h, read-out: TGI
A-431 [19] = assay: Antitumor activity against human A431 cells xenografted in SCID mouse assessed as tumor growth inhibition at 5 mg/kg/day, po qd for 7 days relative to control; type: functional; conditions: Mus musculus, A-431, 168 h, read-out: TGI
[20] = target: Voltage-gated inwardly rectifying potassium channel KCNH2 (Homo sapiens, UniProt Q12809); assay: Inhibition of human ERG
Voltage-gated inwardly rectifying potassium channel KCNH2, sequence (Q12809 whole entry): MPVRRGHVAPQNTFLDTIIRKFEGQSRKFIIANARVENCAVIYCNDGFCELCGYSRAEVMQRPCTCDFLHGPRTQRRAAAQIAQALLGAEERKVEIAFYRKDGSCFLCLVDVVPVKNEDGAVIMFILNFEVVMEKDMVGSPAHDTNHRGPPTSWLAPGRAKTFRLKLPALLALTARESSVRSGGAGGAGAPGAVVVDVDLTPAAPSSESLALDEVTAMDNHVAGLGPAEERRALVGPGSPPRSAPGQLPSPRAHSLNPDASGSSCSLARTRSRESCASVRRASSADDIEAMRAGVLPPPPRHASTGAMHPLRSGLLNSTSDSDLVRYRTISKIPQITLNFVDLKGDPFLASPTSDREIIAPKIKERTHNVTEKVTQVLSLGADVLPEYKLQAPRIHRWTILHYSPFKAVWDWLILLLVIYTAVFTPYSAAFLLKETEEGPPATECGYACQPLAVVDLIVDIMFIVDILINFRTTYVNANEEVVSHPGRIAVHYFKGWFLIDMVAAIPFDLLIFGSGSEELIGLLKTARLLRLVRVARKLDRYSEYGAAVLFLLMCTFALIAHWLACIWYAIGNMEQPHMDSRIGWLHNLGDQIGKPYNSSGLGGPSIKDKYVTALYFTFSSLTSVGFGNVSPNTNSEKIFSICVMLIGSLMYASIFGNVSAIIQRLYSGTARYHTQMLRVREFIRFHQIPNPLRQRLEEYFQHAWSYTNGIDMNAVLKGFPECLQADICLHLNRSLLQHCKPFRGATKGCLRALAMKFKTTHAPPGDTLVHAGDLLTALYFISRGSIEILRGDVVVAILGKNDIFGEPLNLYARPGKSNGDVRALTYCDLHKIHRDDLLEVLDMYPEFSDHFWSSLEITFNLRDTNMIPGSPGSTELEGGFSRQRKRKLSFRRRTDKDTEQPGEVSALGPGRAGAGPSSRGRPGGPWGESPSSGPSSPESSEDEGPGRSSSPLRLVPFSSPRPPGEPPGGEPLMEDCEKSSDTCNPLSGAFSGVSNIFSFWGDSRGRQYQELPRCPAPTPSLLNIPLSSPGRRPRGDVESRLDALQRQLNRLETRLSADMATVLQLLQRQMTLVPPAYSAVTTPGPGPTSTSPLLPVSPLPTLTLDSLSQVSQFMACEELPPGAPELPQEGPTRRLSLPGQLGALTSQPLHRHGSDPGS

[21] = Intrinsic clearance in human hepatocytes measured per 10^6 cells; type: ADME, cell-based, Hepatocyte; conditions: read-out: CLH
[22] = Cmax in mouse at 10 mg/kg, po; type: ADME, organism-based; set-up: dose 10 mg/kg, route oral; conditions: in vivo
Rattus norvegicus = assay: Clearance in iv dosed Han Wistar rat; type: ADME, organism-based; conditions: in vivo
[23] = Oral bioavailability in Han Wistar rat at 5 mg/kg; type: ADME, organism-based; conditions: in vivo
[24] = target: Serine/threonine-protein kinase Chk2 (Homo sapiens) (UniProt O96017); assay: Inhibition of CHK2 (unknown origin) at 1 uM relative to control
Serine/threonine-protein kinase Chk2 (Homo sapiens), sequence (O96017 whole entry): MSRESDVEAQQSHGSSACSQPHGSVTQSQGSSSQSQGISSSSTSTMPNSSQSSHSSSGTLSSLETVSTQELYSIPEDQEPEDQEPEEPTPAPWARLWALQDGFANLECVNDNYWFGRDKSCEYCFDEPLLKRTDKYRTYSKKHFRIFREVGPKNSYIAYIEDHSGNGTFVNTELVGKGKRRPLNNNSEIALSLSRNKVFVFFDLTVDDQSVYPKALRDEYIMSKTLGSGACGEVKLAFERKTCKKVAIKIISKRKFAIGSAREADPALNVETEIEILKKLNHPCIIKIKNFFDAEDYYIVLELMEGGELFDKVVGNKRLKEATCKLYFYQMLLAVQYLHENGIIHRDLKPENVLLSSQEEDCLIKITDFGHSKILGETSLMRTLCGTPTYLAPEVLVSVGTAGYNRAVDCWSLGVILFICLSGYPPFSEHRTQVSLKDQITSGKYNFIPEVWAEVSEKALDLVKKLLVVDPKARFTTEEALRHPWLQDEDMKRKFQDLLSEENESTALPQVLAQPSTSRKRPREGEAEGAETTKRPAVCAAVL

[25] = target: Calcium/calmodulin-dependent protein kinase kinase 2 (Homo sapiens) (UniProt Q96RR4); assay: Inhibition of CAMKKbeta (unknown origin) at 1 uM relative to control
Calcium/calmodulin-dependent protein kinase kinase 2 (Homo sapiens), sequence (Q96RR4 2-588 limits assumed): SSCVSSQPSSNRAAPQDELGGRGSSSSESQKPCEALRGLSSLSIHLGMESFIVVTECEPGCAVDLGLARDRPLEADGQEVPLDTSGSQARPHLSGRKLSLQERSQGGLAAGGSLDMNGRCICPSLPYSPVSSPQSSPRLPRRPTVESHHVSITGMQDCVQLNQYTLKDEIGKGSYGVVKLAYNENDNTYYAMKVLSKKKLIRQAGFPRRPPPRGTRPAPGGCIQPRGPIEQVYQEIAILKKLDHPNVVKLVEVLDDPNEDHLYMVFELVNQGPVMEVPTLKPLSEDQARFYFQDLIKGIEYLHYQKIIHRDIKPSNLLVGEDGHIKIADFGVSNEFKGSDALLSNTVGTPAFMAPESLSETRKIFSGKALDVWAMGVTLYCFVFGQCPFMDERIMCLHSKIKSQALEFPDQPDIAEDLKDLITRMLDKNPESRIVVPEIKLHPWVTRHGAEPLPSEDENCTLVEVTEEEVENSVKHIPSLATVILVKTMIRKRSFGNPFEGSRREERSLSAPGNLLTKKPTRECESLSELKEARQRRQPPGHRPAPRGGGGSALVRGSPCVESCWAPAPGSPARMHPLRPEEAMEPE

[26] = target: T1, Insulin-like growth factor 1 receptor; assay: Inhibition of IGF1R (unknown origin) at 1 uM relative to control
Insulin receptor [27] = target: T2, Insulin receptor (Homo sapiens, UniProt P06213); assay: Inhibition of INSR (unknown origin) at 1 uM relative to control
T2 sequence (P06213 28-758 limits assumed): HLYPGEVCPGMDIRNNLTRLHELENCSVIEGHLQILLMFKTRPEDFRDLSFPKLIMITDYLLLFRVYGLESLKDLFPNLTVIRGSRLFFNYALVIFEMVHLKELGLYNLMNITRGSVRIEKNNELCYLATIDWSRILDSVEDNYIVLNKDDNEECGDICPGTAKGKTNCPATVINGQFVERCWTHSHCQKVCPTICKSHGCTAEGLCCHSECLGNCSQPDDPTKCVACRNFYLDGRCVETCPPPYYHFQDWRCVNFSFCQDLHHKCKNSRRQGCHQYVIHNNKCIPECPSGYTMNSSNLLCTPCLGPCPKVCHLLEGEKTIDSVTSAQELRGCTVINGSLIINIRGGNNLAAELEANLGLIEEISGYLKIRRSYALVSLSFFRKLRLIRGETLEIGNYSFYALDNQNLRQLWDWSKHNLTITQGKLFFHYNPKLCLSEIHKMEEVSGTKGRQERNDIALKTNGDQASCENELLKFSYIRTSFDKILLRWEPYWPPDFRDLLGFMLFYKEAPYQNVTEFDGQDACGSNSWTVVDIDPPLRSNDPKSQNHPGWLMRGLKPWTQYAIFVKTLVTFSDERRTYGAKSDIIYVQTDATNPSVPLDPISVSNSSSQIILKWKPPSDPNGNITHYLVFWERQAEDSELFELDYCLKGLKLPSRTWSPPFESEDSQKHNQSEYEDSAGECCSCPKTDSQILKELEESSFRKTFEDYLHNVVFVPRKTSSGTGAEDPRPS
T2 sequence (P06213 763-1382 limits assumed): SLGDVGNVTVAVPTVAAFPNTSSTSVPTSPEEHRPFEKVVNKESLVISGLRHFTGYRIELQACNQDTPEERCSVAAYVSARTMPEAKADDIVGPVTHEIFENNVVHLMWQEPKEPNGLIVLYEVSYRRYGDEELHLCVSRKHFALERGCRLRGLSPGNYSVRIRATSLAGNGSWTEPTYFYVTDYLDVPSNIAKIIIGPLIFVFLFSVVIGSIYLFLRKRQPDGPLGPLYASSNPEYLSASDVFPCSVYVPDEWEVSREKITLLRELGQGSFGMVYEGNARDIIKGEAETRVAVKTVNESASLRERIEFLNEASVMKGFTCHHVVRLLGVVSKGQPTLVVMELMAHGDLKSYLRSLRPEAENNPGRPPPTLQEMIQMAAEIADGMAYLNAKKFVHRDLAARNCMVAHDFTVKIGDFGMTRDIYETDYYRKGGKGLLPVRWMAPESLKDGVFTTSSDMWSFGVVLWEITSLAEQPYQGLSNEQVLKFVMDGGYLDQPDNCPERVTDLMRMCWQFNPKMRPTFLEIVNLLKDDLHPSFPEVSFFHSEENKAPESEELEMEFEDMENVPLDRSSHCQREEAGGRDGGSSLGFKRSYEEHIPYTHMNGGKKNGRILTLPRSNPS

Mus musculus [28] = assay: Inhibition of EGFR exon 19 deletion activating mutant phosphorylation in human PC9 cells xenografted in SCID mouse at 10 mg/kg, po measured 1 hr post dose; type: functional; conditions: PC-9, 1 h
Mus musculus [29] = assay: Inhibition of EGFR exon 19 deletion activating mutant phosphorylation in human PC9 cells xenografted in SCID mouse at 10 mg/kg, po measured 6 hrs post dose; type: functional; conditions: PC-9, 6 h
Mus musculus [30] = assay: Inhibition of EGFR exon 19 deletion activating mutant phosphorylation in human PC9 cells xenografted in SCID mouse at 10 mg/kg, po measured 16 hrs post dose; type: functional; conditions: PC-9, 16 h
Mus musculus [31] = assay: Inhibition of EGFR exon 19 deletion activating mutant phosphorylation in human PC9 cells xenografted in SCID mouse at 10 mg/kg, po measured 24 hrs post dose; type: functional; conditions: PC-9, 24 h
Mus musculus [32] = assay: Inhibition of EGFR L858R/[…] double mutant phosphorylation in human NCI-H1975 cells xenografted in SCID mouse at 10 mg/kg, po measured 1 hr post dose; type: functional; conditions: NCI-H1975, 1 h
Mus musculus [33] = assay: Inhibition of EGFR L858R/[…] double mutant phosphorylation in human NCI-H1975 cells xenografted in SCID mouse at 10 mg/kg, po measured 6 hrs post dose; type: functional; conditions: NCI-H1975, 6 h
Mus musculus [34] = assay: Inhibition of EGFR L858R/[…] double mutant phosphorylation in human NCI-H1975 cells xenografted in SCID mouse at 10 mg/kg, po measured 16 hrs post dose; type: functional; conditions: NCI-H1975, 16 h
Mus musculus [35] = assay: Inhibition of EGFR L858R/[…] double mutant phosphorylation in human NCI-H1975 cells xenografted in SCID mouse at 10 mg/kg, po measured 24 hrs post dose; type: functional; conditions: NCI-H1975, 24 h
Mus musculus [36] = assay: Inhibition of EGFR L858R/[…] double mutant phosphorylation in human NCI-H1975 cells xenografted in SCID mouse at 10 mg/kg, po measured 30 hrs post dose; type: functional; conditions: NCI-H1975, 30 h
[37] = Antitumor activity against human PC9 cells harboring EGFR exon 19 deletion activating mutant xenografted in SCID mouse assessed as tumor growth inhibition at 10 mg/kg/day, po qd for 7 days relative to control; type: functional, PC-9; conditions: Homo sapiens, PC-9, 168 h, read-out: TGI
Insulin receptor [38] = target: T2, Insulin receptor; assay: Inhibition of INSR (unknown origin)

Structure (SMILES): C=CC(=O)Nc1cc(Nc2ncc(Cl)c(-c3cnn4ccccc34)n2)c(OC)cc1N1CCN(C(=O)CN(C)C)CC1
logD [7]: 2.6

Structure (SMILES): C=CC(=O)Nc1cc(Nc2ncc(C)c(-c3cn(C)c4ccccc34)n2)c(OC)cc1N(C)CCN(C)C
IC50 [6]: 196 nM

Structure (SMILES): C=CC(=O)Nc1cc(Nc2ncc(Cl)c(-c3c[nH]c4ccccc34)n2)c(OC)cc1N(C)CCN(C)C
logD [7]: 3.3
solubility thermodynamic [5]: 75 µM (≈ 39 µg/mL)
IC50 [6]: 7 nM
GI50 (NCI-H1975 [8]): 2 nM
GI50 [9]: 2 nM
GI50 [10]: 144 nM
fraction unbound [11]: 0.036
fraction unbound [12]: 0.075

Structure (SMILES): C=CC(=O)Nc1cc(Nc2ncc(Cl)c(-c3cn(C)c4ccccc34)n2)c(OC)cc1N(C)CCN(C)C
logD [7]: 3.3
solubility thermodynamic [5]: 759 µM (≈ 405 µg/mL)
IC50 [20]: 7400 nM
IC50 [6]: 40 nM
GI50 (NCI-H1975 [8]): 4 nM
GI50 [9]: 3 nM
GI50 [10]: 192 nM
fraction unbound [11]: 0.023
hepatocyte CLint [21]: 10 µL/min/1e6 cells
Cmax [22]: 310 nM
clearance (Rattus norvegicus): 27 mL/min/kg
bioavailability [23]: 7%

Structure (SMILES): C=CC(=O)Nc1cc(Nc2ncc(Cl)c(-c3cnn4ccccc34)n2)c(OC)cc1N1CC(N(C)C)C1
IC50 [6]: 26 nM
inhibition [26]: 97%
inhibition (Insulin receptor [27]): 98%
inhibition in vivo at 10 mg/kg (Mus musculus [28]): 57%
inhibition in vivo at 10 mg/kg (Mus musculus [29]): 85%
inhibition in vivo at 10 mg/kg (Mus musculus [30]): 52%
inhibition in vivo at 10 mg/kg (Mus musculus [31]): 19%
inhibition in vivo at 10 mg/kg (Mus musculus [32]): 37%
inhibition in vivo at 10 mg/kg (Mus musculus [33]): 99%
inhibition in vivo at 10 mg/kg (Mus musculus [34]): 82%
inhibition in vivo at 10 mg/kg (Mus musculus [35]): 79%
inhibition in vivo at 10 mg/kg (Mus musculus [36]): 50%
inhibition in vivo at 10 mg/kg/day (NCI-H1975 [16]): 113%
inhibition in vivo at 10 mg/kg/day [37]: 169%
inhibition in vivo at 10 mg/kg/day (A-431 [17]): 16%
IC50 (Insulin receptor [38]): 35 nM

Structure (SMILES): C=CC(=O)Nc1cc(Nc2ncc(Cl)c(-c3cnn4ccccc34)n2)c(OC)cc1N1CC[C@@H](N(C)C)C1
IC50 [6]: 7 nM
inhibition [26]: 98%
inhibition (Insulin receptor [27]): 98%
inhibition in vivo at 10 mg/kg (Mus musculus [29]): 76%
inhibition in vivo at 10 mg/kg (Mus musculus [31]): 68%
inhibition in vivo at 10 mg/kg (Mus musculus [33]): 94%
inhibition in vivo at 10 mg/kg (Mus musculus [35]): 88%
inhibition in vivo at 10 mg/kg/day [37]: 227%
inhibition in vivo at 10 mg/kg/day (A-431 [17]): 27%
IC50 (Insulin receptor [38]): 21 nM

Structure (SMILES): C=CC(=O)Nc1cc(Nc2ncc(Cl)c(-c3cnn4ccccc34)n2)c(OC)cc1N1CCN(C(=O)[C@H]2CCCCN2)CC1
logD [7]: 2.2

Structure (SMILES): C=CC(=O)Nc1cc(Nc2ncc(Cl)c(-c3cnn4ccccc34)n2)c(OC)cc1N1CCN(C(=O)[C@@H]2CCCCN2)CC1
logD [7]: 2.2

Second part, led by results:

IC50 [1]: 63 nM
IC50 [2]: 15 nM
IC50 [3]: 1200 nM
hepatocyte CLint [4]: 53 µL/min/1e6 cells
solubility thermodynamic [5]: 828 µM (≈ 400 µg/mL)
IC50 [6]: 813 nM
Structure (SMILES): C=CC(=O)Nc1cc(Nc2nccc(-c3c[nH]c4ccccc34)n2)c(OC)cc1N1CCN(C)CC1

logD [7]: 2.9
solubility thermodynamic [5]: 79 µM (≈ 38.4 µg/mL)
IC50 [6]: 263 nM
fraction unbound [11]: 0.075
fraction unbound [15]: 0.134
fraction unbound [12]: 0.16
Structure (SMILES): C=CC(=O)Nc1cc(Nc2nccc(-c3c[nH]c4ccccc34)n2)c(OC)cc1N(C)CCN(C)C
inhibition in vivo at […] (NCI-H1975 [13]): 78%
inhibition in vivo at […] (A-431 [14]): 83%
GI50 (NCI-H1975 [8]): 16 nM
GI50 [9]: 21 nM
GI50 [10]: 58 nM
inhibition in vivo at 10 mg/kg/day (NCI-H1975 [16]): 123%
inhibition in vivo at 10 mg/kg/day (A-431 [17]): 133%
inhibition in vivo at 5 mg/kg/day (NCI-H1975 [18]): 125%
inhibition in vivo at 5 mg/kg/day (A-431 [19]): 85%

logD [7]: 2.7
solubility thermodynamic [5]: 57 µM (≈ 29.9 µg/mL)
IC50 [6]: 38 nM
fraction unbound [11]: 0.089
hepatocyte CLint [21]: 10 µL/min/1e6 cells
Cmax [22]: 110 nM
clearance (Rattus norvegicus): 62 mL/min/kg
bioavailability [23]: 6%
fraction unbound [12]: 0.11
Structure (SMILES): C=CC(=O)Nc1cc(Nc2ncc(C#N)c(-c3cn(C)c4ccccc34)n2)c(OC)cc1N(C)CCN(C)C
IC50 [20]: 4300 nM
GI50 (NCI-H1975 [8]): 2 nM
GI50 [9]: 0.8 nM
GI50 [10]: 101 nM

IC50 [6]: 4 nM
inhibition [24]: 90%
inhibition [25]: 94%
inhibition [26]: 98%
inhibition (Insulin receptor [27]): 97%
Structure (SMILES): COc1ccc(NC(=O)/C=C/CN(C)C)cc1Nc1ncc(Cl)c(-c2cnn3ccccc23)n1

logD [7]: 1.8
Structure (SMILES): C=CC(=O)Nc1cc(Nc2ncc(Cl)c(-c3cnn4ccccc34)n2)c(OC)cc1N1CCN(C(=O)CNC)CC1

logD [7]: 2.1
Structure (SMILES): C=CC(=O)Nc1cc(Nc2ncc(Cl)c(-c3cnn4ccccc34)n2)c(OC)cc1N1CCN(C(=O)[C@@H](C)N)CC1

logD [7]: 2
Structure (SMILES): C=CC(=O)Nc1cc(Nc2ncc(Cl)c(-c3cnn4ccccc34)n2)c(OC)cc1N1CCN(C(=O)N2CCNCC2)CC1

IC50 [6]: 2 nM
inhibition [25]: 92%
inhibition [26]: 97%
Structure (SMILES): C=CC(=O)Nc1cc(Nc2ncc(Cl)c(-c3cnn4ccccc34)n2)c(OC)cc1N1CCN(C)CC1
